“Also recorded” adds a separate entry of the source. Each block holds one molecule with its values, some of them ahead of it.
Key:
CD8+ T cells [1] = assay: Priming of naive CTLs by peptide-loaded moDCs, two-colour tetramer staining (immunogenicity); type: cell-based, human; details: for expansion of specific CD8+ T cells (tetramer staining): one HLA-A2+ healthy donor, at least one magnitude order more tetramer positive cells than control without peptides; for specific CD8+ T expansions (immunogenicity): total of 6 HLA-A2+ healthy donors, FIG. 12A
Procedure: Priming of naïve CTLs. PBMCs were obtained by Ficoll gradient separation from HLA-A2+healthy blood donors. CD14+, CD4+ and CD8+ cells were purified by positive selection using magnetic beads (Miltenyi Biotec). While CD4+ and CD8+ T cells were cryopreserved until the experiment day, CD14+ fraction was cultured in the presence of IL-4 (50 ng/mL) and GM-CSF (10 ng/mL) at 10^6 cells/mL during 5 days to obtain moDCs. After this period of time, the moDCs were maturated with LPS and incubated with synthetic ER-derived peptides at a final concentration of 1 μg/mL for 2 hours. Finally, peptide-loaded moDCs were co-cultured with autologous CD4+ and CD8+ T cells in culture medium supplemented with IL-2 (10 U/ml) and IL-7 (100 ng/ml). The ER-derived peptide stimulation of specific CD8+CTL populations was assessed by MHC-I tetramer staining by flow cytometry using a combination of two-color tetramer for each peptide.
(§1) Tetramer Staining. Cells were resuspended in PBS, stained with Live/Dead Aqua-405 nm (ThermoFisher) during 20 minutes at 4° C. and washed once. After that, cells were resuspended in PBS-1% BSA containing the mix of SA-coupled tetramers and incubated in the dark at room temperature during 20 minutes. Without further washing, surface antibodies were added in PBS-1% BSA and cells were incubated 20 minutes in the dark at 4° C. Surface antibodies were a combination of anti-CD3-BV650+anti-CD8-PECy7 in combination with anti-CCR7-AF700+anti-CD45RA-BUV395 when required. Finally, cells were washed twice and resuspended in FACS buffer for flow cytometry analysis.
Priming assays were thus performed to test the ability of identified peptides to expand specific cytotoxic T cells. PBMCs from HLA-A2+healthy donors were used to generate monocyte derived-DCs (moDCs). After loading the moDCs with a mix of synthetic peptides, autologous co-culture was performed with CD4+ and CD8+ T cells. Finally, the expansion of specific CD8+ T cells was analysed by flow cytometry using two-colours tetramer staining. As a control of specific expansion, the co-culture was performed in the absence of peptides.
The same experiment was performed in order to evaluate the response in additional 5 donors. […] As a positive of expansions, mutated Melan-A peptide ([…]) were used.

CD8+ T cells [2] = assay: Tetramer staining of CD8+ T cells from LUAD patient samples (TILs, tumor, juxta tumor, lymph nodes, blood); type: cell-based, human; details: TILs from LUAD patients expanded with peptide mix + IL-2 or IL-2 only
Procedure: as §1
Tissues and Blood samples. […]
Tumor infiltrating lymphocytes (TILs) cultures. […] Cells were feed/split as necessary during 15-20 days and cryopreserve or analyzed for tetramer staining.
In a first set of experiments tumor infiltrating lymphocytes (TILs) expanded with a mix of TE-derived peptides and Il-2, or only with Il-2, were analyzed by tetramer staining. […]
Using this strategy, CD8+ T cells present in Tumor, juxta-tumor, invaded lymph-nodes and blood derived from LUAD patient samples were thus analyzed. The cell phenotype was determined based on the expression of surface markers CCR7 and CD45RA for Naïve (CCR7+CD45+), Central Memory (CM, CCR7+CD45RA−) Effector Memory (EM, CCR7−CD45−) and Terminal Effectors (TE, CCR7−CD45+) T cells. […]

[3] = biological target: T1, HLA-A2 molecule (HLA-A*02:01), recombinant monomer (human); assay: HLA-A2 monomer stabilisation and tetramer formation with synthetic peptide, flow cytometry with PE anti-b2m; positive control CMV peptide
T1 construct: Peptide-free monomer that is incubated with a synthetic peptide for 48 h at 18 C; also called HLA-A2 allele; HLA-A2 monomers

Molecule: RLLHLESFL
expansion of specific CD8+ T cells (tetramer staining) (CD8+ T cells [1]): expand specific CD8+ T cells
specific CD8+ T expansions (immunogenicity) (CD8+ T cells [1]): specific CD8+ T expansions

Molecule: GLLNISHTA
specific CD8+ T expansions (immunogenicity) (CD8+ T cells [1]): specific CD8+ T expansions

Molecule: ILHSLVTGV
specific CD8+ T expansions (immunogenicity) (CD8+ T cells [1]): specific CD8+ T expansions

Molecule: RQAPGFHHA
specific CD8+ T expansions (immunogenicity) (CD8+ T cells [1]): specific CD8+ T expansions

Molecule: AILPKANTV
expansion of specific CD8+ T cells (tetramer staining) (CD8+ T cells [1]): expand specific CD8+ T cells
specific CD8+ T expansions (immunogenicity) (CD8+ T cells [1]): specific CD8+ T expansions

Molecule: LLTSWHLYL
specific CD8+ T expansions (immunogenicity) (CD8+ T cells [1]): specific CD8+ T expansions

Molecule: VLMWTMAHL
specific CD8+ T expansions (immunogenicity) (CD8+ T cells [1]): specific CD8+ T expansions

Molecule: LLDRFGYHV
specific CD8+ T expansions (immunogenicity) (CD8+ T cells [1]): specific CD8+ T expansions

Molecule: SLMQSGSPV
specific CD8+ T expansions (immunogenicity) (CD8+ T cells [1]): specific CD8+ T expansions

Molecule: AMDGKELSL
specific CD8+ T expansions (immunogenicity) (CD8+ T cells [1]): specific CD8+ T expansions

Molecule: VLLTNTIWL
specific CD8+ T expansions (immunogenicity) (CD8+ T cells [1]): specific CD8+ T expansions

Molecule: RLADHLSFC
expansion of specific CD8+ T cells (tetramer staining) (CD8+ T cells [1]): expand specific CD8+ T cells
specific CD8+ T expansions (immunogenicity) (CD8+ T cells [1]): specific CD8+ T expansions; also recorded: immunogenic

Molecule: MLMKTVWQA
specific CD8+ T expansions (immunogenicity) (CD8+ T cells [1]): specific CD8+ T expansions

Molecule: FLIVAEILI
expansion of specific CD8+ T cells (tetramer staining) (CD8+ T cells [1]): expand specific CD8+ T cells

Molecule: GLPSHVELA
specific CD8+ T expansions (immunogenicity) (CD8+ T cells [1]): specific CD8+ T expansions; also recorded: immunogenic
CD8+ T cells / TILs recognizing the peptide (tetramer positive) (CD8+ T cells [2]): found TILs recognizing peptide

Molecule: ILSGYGPCV
specific CD8+ T expansions (immunogenicity) (CD8+ T cells [1]): specific CD8+ T expansions

Molecule: YLPYFLKSL
specific CD8+ T expansions (immunogenicity) (CD8+ T cells [1]): specific CD8+ T expansions

Molecule: ILTASITSI
specific CD8+ T expansions (immunogenicity) (CD8+ T cells [1]): specific CD8+ T expansions

Molecule: MLVTWELAL
specific CD8+ T expansions (immunogenicity) (CD8+ T cells [1]): specific CD8+ T expansions

Molecule: LLHLESFLV
specific CD8+ T expansions (immunogenicity) (CD8+ T cells [1]): specific CD8+ T expansions

Molecule: FLGTRVTRV
specific CD8+ T expansions (immunogenicity) (CD8+ T cells [1]): specific CD8+ T expansions

Molecule: LLGETKVYV
expansion of specific CD8+ T cells (tetramer staining) (CD8+ T cells [1]): expand specific CD8+ T cells
specific CD8+ T expansions (immunogenicity) (CD8+ T cells [1]): specific CD8+ T expansions

Molecule: YLWTTFFPL
expansion of specific CD8+ T cells (tetramer staining) (CD8+ T cells [1]): expand specific CD8+ T cells
specific CD8+ T expansions (immunogenicity) (CD8+ T cells [1]): specific CD8+ T expansions

percentage of fluorescence relative to positive control (HLA-A2 tetramer formation) [3]: > 50%
B1: chimeric transcript-derived peptide AILPKANTV (peptide)
peptide: AILPKANTV
notes: Synthetic peptide

percentage of fluorescence relative to positive control (HLA-A2 tetramer formation) [3]: > 50%
B2: chimeric transcript-derived peptide MLMKTVWQA (peptide)
peptide: MLMKTVWQA
notes: Synthetic peptide; also called peptide 80

percentage of fluorescence relative to positive control (HLA-A2 tetramer formation) [3]: > 50%
B3: chimeric transcript-derived peptide RLADHLSFC (peptide)
peptide: RLADHLSFC
notes: Synthetic peptide; also called peptide 64

percentage of fluorescence relative to positive control (HLA-A2 tetramer formation) [3]: > 50%
B4: chimeric transcript-derived peptide RLLHLESFL (peptide)
peptide: RLLHLESFL
notes: Synthetic peptide

percentage of fluorescence relative to positive control (HLA-A2 tetramer formation) [3]: > 50%
B5: chimeric transcript-derived peptide AMDGKELSL (peptide)
peptide: AMDGKELSL
notes: Synthetic peptide

percentage of fluorescence relative to positive control (HLA-A2 tetramer formation) [3]: > 50%
B6: chimeric transcript-derived peptide YLPYFLKSL (peptide)
peptide: YLPYFLKSL
notes: Synthetic peptide

percentage of fluorescence relative to positive control (HLA-A2 tetramer formation) [3]: > 50%
B7: chimeric transcript-derived peptide FLGTRVTRV (peptide)
peptide: FLGTRVTRV
notes: Synthetic peptide

percentage of fluorescence relative to positive control (HLA-A2 tetramer formation) [3]: > 50%
B8: chimeric transcript-derived peptide FLIVAEILI (peptide)
peptide: FLIVAEILI
notes: Synthetic peptide

From US20250041412A1, “TRANSMEMBRANE NEOANTIGENIC PEPTIDES” (INSTITUT CURIE, priority 2021, published 2025)
